Non-standard residues stand in square brackets, D forms with d. Residues, ends and D or L forms follow the SMILES beside them. Bip = N[C@@H](Cc1ccc(-c2ccccc2)cc1)C(=O)O; Phe(4-Cl) = N[C@@H](Cc1ccc(Cl)cc1)C(=O)O; Phe(4-I) = N[C@@H](Cc1ccc(I)cc1)C(=O)O; NMeH = CN[C@@H](Cc1c[nH]cn1)C(=O)O; NMeK = CN[C@@H](CCCCN)C(=O)O; dNle = CCCC[C@@H](N)C(=O)O; Nle = CCCC[C@H](N)C(=O)O; dAbu = CC[C@@H](N)C(=O)O; dNMeA = CN[C@H](C)C(=O)O
Target: human MC4R (Homo sapiens, UniProt P32245)
Assay: Intracellular cAMP levels in live cells, MC3R selectivity relative to MC4R
Type: cell-based
Conditions: cAMP assays in human MC3R and human MC4R stable cell lines
Experimental: The stable cell lines were grown and maintained in selection media consisting of Dulbecco's modified Eagle media (DMEM) with 4.5 g/l D-glucose, and 4 mM L-glutamine (Thermo Fisher Scientific, Waltham, MA), supplemented with 10% fetal bovine serum, 100 units/ml penicillin, 100 μg/ml streptomycin, 2.5 μg/ml amphotericin B, 200 μg/ml hygromycin B (for positive selection of the GScAMP22f luciferase reporter), and Geneticin™ (G418) 700 μg/ml (for MC3R or MC4R selection). Actual serum concentration during the assay is estimated to be about 1%. Cell line identity is routinely verified by qPCR and MC3R- and MC4R-specific oligonucleotides.
The assay for the determination of the CAMP response in live cells was described previously. […] Ccells were seeded at a density of 20,000 cells per well using 384-well poly-D lysine-coated, clear bottom, and black-wall assay plates (Corning Inc. Corning, NJ). Cells were allowed to attach to the plates for 18 to 24 h after which growth media was removed and 20 ul of 4% D-luciferin (Promega) in CO2 independent, serum-free medium (Thermo Fisher Scientific) was added to each well. […] Intracellular cAMP levels were measured using an FDSS 7000EX Functional Drug Screening System (Hamamatsu Photonics, Hamamatsu, Japan) in the Center for Chemical Genomics at the Life Sciences Institute. This instrument allowed the in-line addition of test-peptides and receptor agonists while simultaneously acquiring the luminescence signal from live cells. […] A submaximal forskolin (20 μM) concentration was also included to serve as a normalization reference to account for cell number variations and differences in assay transducer efficiency between cell lines.
With this set up it was possible to evaluate the direct agonist effect of the test-peptides on the MC3R and MC4R cell lines during measurement window 1, while the antagonist profile in the presence of EC90 α-MSH was determined on measurement window 2. […] EC50 or IC50 potency values were determined by non-linear regression by fitting the data to a sigmoid four-parameter variable slope model using the GraphPad Prism version 8.4 software package (San Diego CA).

Sequence of human MC4R (P32245 whole entry): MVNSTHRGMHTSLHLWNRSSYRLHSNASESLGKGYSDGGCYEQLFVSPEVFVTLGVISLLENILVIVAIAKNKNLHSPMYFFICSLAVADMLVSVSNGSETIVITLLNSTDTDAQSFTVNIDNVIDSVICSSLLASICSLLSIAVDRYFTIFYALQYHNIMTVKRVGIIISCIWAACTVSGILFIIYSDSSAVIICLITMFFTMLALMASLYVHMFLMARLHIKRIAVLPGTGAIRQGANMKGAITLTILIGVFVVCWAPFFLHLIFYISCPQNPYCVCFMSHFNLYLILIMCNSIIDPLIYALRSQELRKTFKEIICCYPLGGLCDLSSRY

| Structure (SMILES) | MC3R selectivity (relative to MC4R) |
| --- | --- |
| CCCC[C@H](NC(=O)[C@@H](NC(=O)[C@@H](Cc1ccc(O)cc1)NC(=O)CNC(=O)COCCOCCNC(=O)CNC(=O)CCc1ccc(I)cc1)C(C)C)C(=O)N[C@H](C)C(=O)N[C@@H](Cc1c[nH]cn1)C(=O)N[C@@H](Cc1ccccc1)C(=O)N[C@@H](CCCNC(=N)N)C(=O)N[C@H](Cc1c[nH]c2ccccc12)C(=O)N[C@@H](CC(=O)O)C(=O)N[C@H](CCCNC(=N)N)C(=O)N[C@@H](Cc1ccccc1)C(=O)NCC(=O)O [CTX-1156, Gly-D-Tyr-Val Nle-D-Ala-His-Phe-Arg-D-Trp-Asp-D-Arg-Phe-Gly] | 86 |
| CCCC[C@H](NC(C)=O)C(=O)N[C@H](C)C(=O)N[C@@H](Cc1c[nH]cn1)C(=O)N[C@@H](Cc1ccccc1)C(=O)N[C@@H](CCCNC(=N)N)C(=O)N[C@H](Cc1c[nH]c2ccccc12)C(=O)N[C@@H](CC(=O)O)C(=O)N[C@@H](CCCNC(=N)N)C(=O)N[C@@H](Cc1ccccc1)C(N)=O [CTX-1158, Nle-D-Ala-His-Phe-Arg-D-Trp-Asp-Arg-Phe] (Ac-[Nle][dA]HFR[dW]DRF-NH2) | 535 |
| CCCC[C@H](NC(C)=O)C(=O)N[C@H](C)C(=O)N[C@@H](Cc1c[nH]cn1)C(=O)N[C@@H](Cc1ccccc1)C(=O)N[C@@H](CCCNC(=N)N)C(=O)N[C@H](Cc1c[nH]c2ccccc12)C(=O)N[C@@H](CC(=O)O)C(=O)N[C@@H](CCCNC(=N)N)C(=O)N[C@H](Cc1ccccc1)C(N)=O [CTX-1159, Nle-D-Ala-His-Phe-Arg-D-Trp-Asp-Arg-D-Phe] (Ac-[Nle][dA]HFR[dW]DR[dF]-NH2) | 213 |
| CCCC[C@H](NC(C)=O)C(=O)N[C@H](C)C(=O)N[C@@H](Cc1c[nH]cn1)C(=O)N[C@@H](Cc1ccccc1)C(=O)N[C@@H](CCCNC(=N)N)C(=O)N[C@H](Cc1c[nH]c2ccccc12)C(=O)N[C@@H](CC(=O)O)C(=O)N[C@@H](CCCNC(=N)N)C(=O)N[C@H](Cc1ccccc1)C(=O)N[C@@H](CCCCN)C(=O)O [CTX-1160, Nle-D-Ala-His-Phe-Arg-D-Trp-Asp-Arg-D-Phe-Lys] (Ac-[Nle][dA]HFR[dW]DR[dF]K-OH) | 1,257 |
| CCCC[C@H](NC(C)=O)C(=O)N[C@H](C)C(=O)N[C@@H](Cc1c[nH]cn1)C(=O)N[C@@H](Cc1ccccc1)C(=O)N[C@@H](CCCNC(=N)N)C(=O)N[C@H](Cc1c[nH]c2ccccc12)C(=O)N[C@@H](CC(=O)O)C(=O)N[C@@H](CCCNC(=N)N)C(N)=O [CTX-1163, Nle-D-Ala-His-Phe-Arg-D-Trp-Asp-Arg] (Ac-[Nle][dA]HFR[dW]DR-NH2) | 282 |
| CCCC[C@H](NC(C)=O)C(=O)N[C@H](C)C(=O)N[C@@H](Cc1c[nH]cn1)C(=O)N[C@@H](Cc1ccc(Cl)cc1)C(=O)N[C@@H](CCCNC(=N)N)C(=O)N[C@H](Cc1c[nH]c2ccccc12)C(=O)N[C@@H](CC(=O)O)C(=O)N[C@@H](CCCNC(=N)N)C(=O)N[C@@H](Cc1ccccc1)C(=O)NCC(=O)O [CTX-1166, Nle-D-Ala-His-Phe(4-Cl)-Arg-D-Trp-Asp-Arg-Phe-Gly] (Ac-[Nle][dA]H[Phe(4-Cl)]R[dW]DRFG-OH) | 3099 |
| CCCC[C@H](NC(C)=O)C(=O)N[C@H](C)C(=O)N[C@@H](Cc1c[nH]cn1)C(=O)N[C@@H](Cc1ccc(-c2ccccc2)cc1)C(=O)N[C@@H](CCCNC(=N)N)C(=O)N[C@H](Cc1c[nH]c2ccccc12)C(=O)N[C@@H](CC(=O)O)C(=O)N[C@@H](CCCNC(=N)N)C(=O)N[C@@H](Cc1ccccc1)C(=O)NCC(N)=O [CTX-1168, Nle-D-Ala-His-Bip-Arg-D-Trp-Asp-Arg-Phe-Gly] (Ac-[Nle][dA]H[Bip]R[dW]DRFG-NH2) | 485 |
| CCCC[C@H](NC(C)=O)C(=O)N[C@H](C)C(=O)N[C@@H](Cc1c[nH]cn1)C(=O)N[C@@H](Cc1ccc(I)cc1)C(=O)N[C@@H](CCCNC(=N)N)C(=O)N[C@H](Cc1c[nH]c2ccccc12)C(=O)N[C@@H](CC(=O)O)C(=O)N[C@@H](CCCNC(=N)N)C(N)=O [CTX-1170, Nle-D-Ala-His-Phe(4-I)-Arg-D-Trp-Asp-Arg] (Ac-[Nle][dA]H[Phe(4-I)]R[dW]DR-NH2) | 67 |
| CCCC[C@H](NC(=O)[C@@H](NC(=O)[C@H](N)Cc1ccc(O)cc1)C(C)C)C(=O)N[C@H](C)C(=O)N[C@@H](Cc1c[nH]cn1)C(=O)N[C@@H](Cc1ccc(I)cc1)C(=O)N[C@@H](CCCNC(=N)N)C(=O)N[C@H](Cc1c[nH]c2ccccc12)C(=O)N[C@@H](CC(=O)O)C(N)=O [CTX-1171, D-Tyr-Val-Nle-D-Ala-His-Phe(4-I)-Arg-D-Trp-Asp] (H-[dY]V[Nle][dA]H[Phe(4-I)]R[dW]D-NH2) | 234 |
| CCCC[C@H](NC(C)=O)C(=O)N[C@@H](C(=O)N[C@@H](Cc1c[nH]cn1)C(=O)N[C@@H](Cc1ccccc1)C(=O)N[C@@H](CCCNC(=N)N)C(=O)N[C@H](Cc1c[nH]c2ccccc12)C(=O)N[C@@H](CC(=O)O)C(=O)N[C@@H](CCCNC(=N)N)C(=O)N[C@@H](Cc1ccccc1)C(=O)NCC(=O)O)C(C)C [CTX-1181, Nle-D-Val-His-Phe-Arg-D-Trp-Asp-Arg-Phe-Gly] (Ac-[Nle][dV]HFR[dW]DRFG-OH) | 718 |
| CCCC[C@H](NC(C)=O)C(=O)N[C@H](CCCC)C(=O)N[C@@H](Cc1c[nH]cn1)C(=O)N[C@@H](Cc1ccccc1)C(=O)N[C@@H](CCCNC(=N)N)C(=O)N[C@H](Cc1c[nH]c2ccccc12)C(=O)N[C@@H](CC(=O)O)C(=O)N[C@@H](CCCNC(=N)N)C(=O)N[C@@H](Cc1ccccc1)C(=O)NCC(=O)O [CTX-1182, Nle-D-Nle-His-Phe-Arg-D-Trp-Asp-Arg-Phe-Gly] (Ac-[Nle][dNle]HFR[dW]DRFG-OH) | 1406 |
| CCCC[C@H](NC(C)=O)C(=O)N(C)[C@H](C)C(=O)N[C@@H](Cc1c[nH]cn1)C(=O)N[C@@H](Cc1ccccc1)C(=O)N[C@@H](CCCNC(=N)N)C(=O)N[C@H](Cc1c[nH]c2ccccc12)C(=O)N[C@@H](CC(=O)O)C(=O)N[C@@H](CCCNC(=N)N)C(=O)N[C@@H](Cc1ccccc1)C(=O)NCC(=O)O [CTX-1183, Nle-NMe-D-Ala-His-Phe-Arg-D-Trp-Asp-Arg-Phe-Gly] (Ac-[Nle][dNMeA]HFR[dW]DRFG-OH) | 515 |
| CCCC[C@H](NC(C)=O)C(=O)N1CCC[C@@H]1C(=O)N[C@@H](Cc1c[nH]cn1)C(=O)N[C@@H](Cc1ccccc1)C(=O)N[C@@H](CCCNC(=N)N)C(=O)N[C@H](Cc1c[nH]c2ccccc12)C(=O)N[C@@H](CC(=O)O)C(=O)N[C@@H](CCCNC(=N)N)C(=O)N[C@@H](Cc1ccccc1)C(=O)NCC(=O)O [CTX-1184, Nle-D-Pro-His-Phe-Arg-D-Trp-Asp-Arg-Phe-Gly] (Ac-[Nle][dP]HFR[dW]DRFG-OH) | 28 |
| CCCC[C@H](NC(C)=O)C(=O)NCC(=O)N[C@@H](Cc1c[nH]cn1)C(=O)N[C@@H](Cc1ccccc1)C(=O)N[C@@H](CCCNC(=N)N)C(=O)N[C@H](Cc1c[nH]c2ccccc12)C(=O)N[C@@H](CC(=O)O)C(=O)N[C@@H](CCCNC(=N)N)C(=O)N[C@@H](Cc1ccccc1)C(=O)NCC(=O)O [CTX-1185, Nle-Gly-His-Phe-Arg-D-Trp-Asp-Arg-Phe-Gly] (Ac-[Nle]GHFR[dW]DRFG-OH) | 2,312 |
| CCCC[C@H](NC(C)=O)C(=O)N[C@H](C)C(=O)N(C)[C@@H](Cc1c[nH]cn1)C(=O)N[C@@H](Cc1ccccc1)C(=O)N[C@@H](CCCNC(=N)N)C(=O)N[C@H](Cc1c[nH]c2ccccc12)C(=O)N[C@@H](CC(=O)O)C(=O)N[C@@H](CCCNC(=N)N)C(=O)N[C@@H](Cc1ccccc1)C(=O)NCC(=O)O [CTX-1186, Nle-D-Ala-NMe-His-Phe-Arg-D-Trp-Asp-Arg-Phe-Gly] (Ac-[Nle][dA][NMeH]FR[dW]DRFG-OH) | 1884 |
| CCCC[C@H](NC(C)=O)C(=O)N[C@H](C)C(=O)N(C)[C@@H](CCCCN)C(=O)N[C@@H](Cc1ccccc1)C(=O)N[C@@H](CCCNC(=N)N)C(=O)N[C@H](Cc1c[nH]c2ccccc12)C(=O)N[C@@H](CC(=O)O)C(=O)N[C@@H](CCCNC(=N)N)C(=O)N[C@@H](Cc1ccccc1)C(=O)NCC(=O)O [CTX-1189, Nle-D-Ala-NMe-Lys-Phe-Arg-D-Trp-Asp-Arg-Phe-Gly] (Ac-[Nle][dA][NMeK]FR[dW]DRFG-OH) | 1 |
| CC[C@@H](NC(=O)[C@H](CCC(=O)O)NC(=O)[C@@H](NC(=O)[C@H](Cc1ccc(O)cc1)NC(C)=O)C(C)C)C(=O)N[C@@H](Cc1c[nH]cn1)C(=O)N[C@@H](Cc1ccc(I)cc1)C(=O)N[C@@H](CCCNC(=N)N)C(=O)N[C@H](Cc1c[nH]c2ccccc12)C(=O)N[C@@H](CC(=O)O)C(=O)N[C@@H](CCCNC(=N)N)C(=O)N[C@@H](Cc1ccccc1)C(=O)NCC(=O)O [CTX-1194, Tyr-Val-Glu-D-Abu-His-Phe(4-I)-Arg-D-Trp-Asp-Arg-Phe-Gly] (Ac-YVE[dAbu]H[Phe(4-I)]R[dW]DRFG-OH) | 49 |

Source: patent US20240287154A1, “MC3R AGONIST PEPTIDES” (The Regents of the University of Michigan, priority 2021, published 2024)
